Patent US12533357B2, “Treatment for acute myeloid leukemia or myelodysplastic syndrome” (UNIVERSITY HEALTH NETWORK, priority 2019, dated 2026)

Key:
[1] = system: MV4-11 acute myeloid leukemia xenograft; assay: MV4-11 xenograft tumor growth in SCID mice; format: in vivo; settings: day 13; vincristine 0.5 mg/kg IP weekly; p=0.14
Description: (§1) The human acute myeloid leukemia cell line MV4-11 was acquired from American Type Culture Collection (Manassas, VA, USA) and grown in RPMI medium containing 100 units/mL penicillin G sodium, 100 μg/mL streptomycin sulfate. The media was supplemented with 10% heat-inactivated fetal bovine serum, 2 mM L-glutamine, and 0.11% sodium pyruvate. The tumor cells were maintained in a humidified environment of 5% CO2 and 95% air at 37° C. Cells were verified to be free of mouse pathogens by IMPACT IV PCR analysis (IDEXX RADIL, Colombia, MO, USA) before injection.
(§2) Female SCID mice were purchased from the Ontario Cancer Institute and received and acclimated at the MaRS-TMDT Animal Resources Centre for 2 weeks prior to the start of the experiment. The mice were fed ad libitum autoclaved water and Rodent Lab Diet (Harlan Teklad LM-485) consisting of 19% crude protein, 5% crude fat, and 5% crude fiber. Mice were housed in microisolator cages and maintained in an environment with a 12-hour light cycle at 20-22° C. and 40-60% humidity. On the day of implantation, MV4-11 cells were harvested and resuspended with serum free DMEM to a concentration of 1×10^8/mL and each mouse was injected subcutaneously with a volume of 0.1 mL containing 1×10^7 MV4-11 cells in the right rear flank.
Animals were dosed Compound (I) via oral gavage in a volume of 10 ml/kg. The animals were dosed with a 2.25 mm×50 mm curved gavage needle affixed to a 1 ml syringe. Vincristine was dosed by IP injection once per week.
(§3) Toxicity was evaluated by body weight measurements and clinical observations. The mice were observed daily for overt signs of any adverse, treatment related side effects, and clinical signs of toxicity. Acceptable toxicity was set at a group mean body weight loss of less than 20% during the study and not more than one treatment related death in a group. Animals were monitored for body weights and tumor growth where tumor volumes were calculated using the formula: tumor volume=width^2×length/2.
The study evaluated Compound (I) fumarate administered by oral gavage, either daily at 7.5 mg/kg or 2 days on/5 days off at 13.5 mg/kg, in comparison to the standard-of-care agent vincristine, dosed in 4 weekly intraperitoneal injections of 0.5 mg/kg, in the MV4-11 acute myeloid leukemia xenograft model in SCID (severe combined immunodeficiency) mice. Xenografts were established by subcutaneously injecting 1×10^7 tumor cells into the right flank of female SCID mice. Treatment was initiated 14 days following implantation when tumor volumes reached a mean volume of approximately 90 mm^3. […] Animals were dosed in the 2-on/5-off schedule for 21 days. […] By day 13, the average volume of the control tumors was 878 mm^3, averaging […] tumor growth over the 13 days. On day 13 the average tumor growth inhibition in the vincristine treated arm was 85% (p=0.14).

[2] = system: MOLT-4 acute lymphoblastic leukemia xenograft; assay: MOLT-4 xenograft tumor growth in SCID mice; format: in vivo; settings: day 13; 0.5 mg/kg IP weekly; p=0.21
Description: as §1, with “lymphoblastic” for “myeloid”, “MOLT-4” for “MV4-11”
as §2, with “MOLT-4” for “MV4-11”
Animals were dosed Compound (I) via oral gavage in a volume of 10 mL/kg. The animals were dosed with a 2.25 mm×50 mm curved gavage needle affixed to a 1 mL syringe. Vincristine was dosed by IP injection once per week.
as §3
The study evaluated Compound (I) fumarate administered by oral gavage for 21 days, either daily at 7.5 mg/kg or 2 days on/5 days off at 13.5 mg/kg, in comparison to the standard-of-care agent vincristine, dosed in 4 weekly intraperitoneal injections of 0.5 mg/kg, in the MOLT-4 […] xenograft model in SCID (severe combined immunodeficiency) mice. Xenografts were established by subcutaneously injecting 1×10^7 tumor cells into the right flank of female SCID mice. Treatment was initiated 9 days following implantation when tumor volumes reached a mean volume of approximately 250 mm^3.

CC[C@]1(O)C[C@H]2CN(CCc3c([nH]c4ccccc34)[C@@](C(=O)OC)(c3cc4c(cc3OC)N(C=O)[C@H]3[C@@](O)(C(=O)OC)[C@H](OC(C)=O)[C@]5(CC)C=CCN6CC[C@]43[C@@H]65)C2)C1 [vincristine, reference compound]
average tumor growth inhibition [1]: 85% | average tumor growth inhibition [2]: 18%
